Values joined by “and” are separate entries in the source; they are usually repeats but may differ in a detail not shown here. Equal entries are not always repeated. Inconclusive results and toxic doses are left out. How the source made its calls: active means survival T/C of 150% or more; inactive means T/C below 125% in these data.
System: P388 leukemia ip, CD2F1 mice, survival T/C
Assay: NCI In Vivo Anticancer Drug Screen. Data for tumor model P388 Leukemia (intraperitoneal) in CD2F1 (CDF1) mice
Conditions: endpoint: median survival time, higher = longer survival
Summary of the method: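 Mice carrying the transplanted tumor received test compound or vehicle. Survival was recorded in each group, and the value is the treated-group measurement divided by that of the vehicle-treated control group.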

[1] = dose: 12.5 mg/kg/injection, schedule: Q01DX009 (ip), vehicle: saline
[2] = dose: 25.0 mg/kg/injection, schedule: Q01DX009 (ip), vehicle: saline
[3] = dose: 50.0 mg/kg/injection, schedule: Q01DX009 (ip), vehicle: saline
[4] = dose: 100.0 mg/kg/injection, schedule: Q01DX009 (ip), vehicle: saline
[5] = dose: 25.0 mg/kg/injection, schedule: Q01DX009 (ip), vehicle: saline with Tween-80
[6] = dose: 50.0 mg/kg/injection, schedule: Q01DX009 (ip), vehicle: saline with Tween-80
[7] = dose: 100.0 mg/kg/injection, schedule: Q01DX009 (ip), vehicle: saline with Tween-80
[8] = dose: 50.0 mg/kg/injection, schedule: Q01DX005 (ip), vehicle: saline with Tween-80
[9] = dose: 100.0 mg/kg/injection, schedule: Q01DX005 (ip), vehicle: saline with Tween-80
[10] = dose: 200.0 mg/kg/injection, schedule: Q01DX005 (ip), vehicle: saline with Tween-80

Measured: T/C

O=C(O)CN(CCN1CC(=O)OC(=O)C1)CCN1CC(=O)OC(=O)C1
inactive: dose: 60.0 mg/kg/injection, schedule: Q01DX005 (ip), vehicle: saline 102 % of control | dose: 120.0 mg/kg/injection, schedule: Q01DX005 (ip), vehicle: saline 97 % of control

Nc1ccc2c(c1)C1C(C3C2C2(Cl)C(Cl)=C(Cl)C3(Cl)C2(Cl)Cl)C2(Cl)C(Cl)=C(Cl)C1(Cl)C2(Cl)Cl (stereo not given)
inactive: [1] 97 % of control | [2] 109 % of control | [3] 100 % of control and 95 % of control | [4] 100 % of control | dose: 200.0 mg/kg/injection, schedule: Q01DX009 (ip), vehicle: saline 98 % of control

O=C1C(N=Nc2ccccc2)Sc2nc3ccccc3n21 (stereo not given)
inactive: dose: 60.0 mg/kg/injection, schedule: Q01DX005 (ip), vehicle: Klucel (hydroxypropylcellulose) (HPC) 90 % of control | dose: 120.0 mg/kg/injection, schedule: Q01DX005 (ip), vehicle: Klucel (hydroxypropylcellulose) (HPC) 86 % of control

O=[N+]([O-])c1c(O)c(CNCCCO)cc(CNCCCO)c1O
inactive: [2] 113 % of control | [3] 116 % of control

COCCCn1c(C(Cl)(Cl)Cl)nn2c(=O)c3ccccc3nc2c1=O
inactive: dose: 6.25 mg/kg/injection, schedule: Q01DX009 (ip), vehicle: saline with Tween-80 96 % of control | dose: 12.5 mg/kg/injection, schedule: Q01DX009 (ip), vehicle: saline with Tween-80 91 % of control | [5] 100 % of control

Cc1ccc(C2=NN(c3ccccc3)C(c3ccccc3)C2NC2CCCCC2)cc1 (stereo not given)
inactive: dose: 25.0 mg/kg/injection, schedule: Q01DX005 (ip), vehicle: Klucel (hydroxypropylcellulose) (HPC) 90 % of control | dose: 50.0 mg/kg/injection, schedule: Q01DX005 (ip), vehicle: Klucel (hydroxypropylcellulose) (HPC) 90 % of control | dose: 100.0 mg/kg/injection, schedule: Q01DX005 (ip), vehicle: Klucel (hydroxypropylcellulose) (HPC) 89 % of control

O=C(O)c1cccnc1Cl
inactive: [6] 103 % of control | [7] 96 % of control | dose: 200.0 mg/kg/injection, schedule: Q01DX009 (ip), vehicle: saline with Tween-80 100 % of control

COC(=O)/C(=C\SC(C)=O)NC(C)=O
inactive: dose: 100.0 mg/kg/injection, schedule: Q04DX002 (ip), vehicle: saline with Tween-80 107 % of control | dose: 200.0 mg/kg/injection, schedule: Q04DX002 (ip), vehicle: saline with Tween-80 105 % of control | dose: 400.0 mg/kg/injection, schedule: Q04DX002 (ip), vehicle: saline with Tween-80 117 % of control

C#CC[N+]12CN3CN(CN(C3)C1)C2
inactive: [1] 98 % of control | [2] 99 % of control | [3] 99 % of control | [4] 116 % of control

CCN(CC)CCNc1cccc2oc3ccc(O)cc3c(=O)c12
inactive: [8] 108 % of control | [9] 105 % of control | [10] 108 % of control

S=C(Nc1ccccc1)NC1SNC(=Nc2ccccc2)N1c1ccccc1 (stereo not given)
inactive: [8] 106 % of control | [9] 95 % of control | [10] 95 % of control

CCN(CC)c1cc(Cl)ccc1Cl
inactive: [5] 104 % of control | [6] 104 % of control | [7] 100 % of control

COc1ccc(-c2c(N)cnc(C)c2C)c(OC)c1OC
inactive: dose: 12.5 mg/kg/injection, schedule: Q01DX009 (ip), vehicle: other 107 % of control | dose: 25.0 mg/kg/injection, schedule: Q01DX009 (ip), vehicle: other 107 % of control | dose: 50.0 mg/kg/injection, schedule: Q01DX009 (ip), vehicle: other 99 % of control | dose: 100.0 mg/kg/injection, schedule: Q01DX009 (ip), vehicle: other 87 % of control

Cc1cc2nc3ccc(N=Nc4ccc(N(C)C)cc4)cc3n(-c3ccccc3)c-2cc1=N
inactive: dose: 0.39 mg/kg/injection, schedule: Q01DX009 (ip), vehicle: saline 113 % of control and 118 % of control | dose: 0.78 mg/kg/injection, schedule: Q01DX009 (ip), vehicle: saline 119 % of control

C=CCCCCCCCCC(=O)NCC(C)C
inactive: dose: 100.0 mg/kg/injection, schedule: Q04DX003 (ip), vehicle: saline with Tween-80 86 % of control | dose: 200.0 mg/kg/injection, schedule: Q04DX003 (ip), vehicle: saline with Tween-80 95 % of control | dose: 400.0 mg/kg/injection, schedule: Q04DX003 (ip), vehicle: saline with Tween-80 100 % of control

Source: PubChem BioAssay AID330 (DTP/NCI, 2004)
